# Assay results reported in patent publication US11084847B2, “Polyamide compound and use thereof” (SICHUAN KELUN-BIOTECH BIOPHARMACEUTICAL CO., LTD., priority 2016, dated 2021).
# Read-outs that look alike come from different tables or passages of the source.
# Tests used:
# [1] = target: T1, human κ-opioid receptor (KOR) (Homo sapiens, UniProt P41145); experiment: κ-opioid receptor agonistic effect (inhibition of adenylate cyclase, cAMP assay); type: cell-based; details: CHO cells stably expressing human KOR; NKH477-stimulated cAMP; four-parameter fit; read-out: ED50 (the source's name)
# T1 construct: expressed in transfected cells
# Description: The efficacy of the compounds of the invention as κ-opioid receptor agonists was determined by measuring the ability of the compounds of Examples to inhibit adenylate cyclase activity.
# Cell culture: hamster ovary cells CHO stably expressing human κ-opioid receptor (KOR) gene were cultured in MEMα plus nucleosides medium (Invitrogen) containing 5% FBS.
# Stimulation: the test compound was 4-fold diluted in a gradient manner to obtain 11 concentrations, and 100 nl of each was transferred to a 384-well plate, and then a stimulating solution (5 uL) containing NKH477 (Tocris) was added; the cells were digested, re-suspended, and counted; and then the cells (5 uL) were added to wells, mixed gently, and incubated at 37° C. for 30 min.
# Detection: cAMP Assay Kit (Cisbio) was used, cAMP-D2 and Anti-cAMP-Cryptate were added separately, and the resultant mixture was incubated for 1 h at room temperature. The plate was read using envision (Perkin Elmer) and EC50 was obtained by means of fitting with a four-parameter equation.
# DOR = DOR (Homo sapiens, UniProt P41143); experiment: Opioid receptor selectivity, radioligand competition binding (3H-DADLE) on cell membranes
# Description: (§1) The selectivity of the compounds of the invention for κ opioid receptors was determined by measuring the inhibitory effect of the compounds of Examples on the […] of KOR, MOR, and DOR.
# (§2) The compounds of Examples at different concentrations were incubated with the cell membrane with high expression of KOR, MOR, DOR and the corresponding radioligand (KOR: 3H-diprenophrine; MOR: 3H-DAMGO; DOR: 3H-DADLE) for 1 h, the compounds of Examples competed with the radioligands for binding to KOR, MOR, DOR. After the incubation, Cell harvest was used to collect cell membranes onto a Unifilter-96 GF/C filter plate, and the unbound radioligands were washed away. The plate was placed in a 50-degree oven for 1 h, and finally the scintillation solution Microscint 20 cocktail was added and the isotope signal was detected by MicroBeta2 Reader.
# (§3) According to the intensity of the isotope signal at different concentrations, the IC50 was calculated by means of fitting with a four-parameter equation, and the Ki value was calculated.
# (§4) The Ki value was calculated according to the formula Ki=IC50/(1+[radioligand]/Kd), and Kd was the equilibrium dissociation constant of radioligand.
# MOR = MOR (Homo sapiens, UniProt P35372); experiment: Opioid receptor selectivity, radioligand competition binding (3H-DAMGO) on cell membranes
# Description: as §1, §2, §3, §4
# KOR = KOR (Homo sapiens, UniProt P41145); experiment: Opioid receptor selectivity, radioligand competition binding (3H-diprenophrine) on cell membranes
# Description: as §1, §2, §3, §4
# male ICR mice = experiment: Acetic acid-induced writhing test in mice; type: in vivo; set-up: ED50: unit not given here
# Description: The analgesic effect of the compound of the invention was evaluated by measuring the ED50 of the compounds of Examples in the acetic acid-induced writhing test in mice.
# The commercial glacial acetic acid solution was diluted with physiological saline to 0.6% glacial acetic acid solution. The male ICR mice were randomly separated into the drug group and the model group (to which physiological saline was administration). 15 minutes after iv administration, 0.6% acetic acid solution was intraperitoneally injected at 10 ml/kg, and the mice was immediately recorded with DV camera for 15 min. After the recording, the number of writhes of the mice within 15 min was counted from the video by blind method, the inhibition rate for the writhes was calculated according to Formula (I), and the ED50 of the compound was calculated according to Formula (II).
# (I) The inhibition rate for the writhes was calculated by the formula: Inhibition rate (%)=(the number of writhes in a model group−the number of writhes in a drug group)/the number of writhes in a model group*100.
# (II) The ED50 was calculated by the formula:
# [formula] wherein Xm was the logarithm of the highest dose, d was the difference in the logarithm of two adjacent doses, p was the inhibition rate for each dose group, pm was the highest-dose inhibition rate, and pn was the lowest-dose inhibition rate.
# [2] = Pharmacokinetic (PK) study in rats; type: in vivo; details: male SD rats, intravenous, 1 mg/kg
# Description: The pharmacokinetic profile of the compounds of Examples was studied by intravenous administration of the compounds of Examples to male SD rats. The dose for IV administration was 1 mg/kg, and the solvent was 5% DMSO: 5% solutol: 90% physiological saline. After IV administration, blood samples were collected at different time points for PK study. Plasma were treated by protein precipitation and then analyzed by LC-MS/MS.
# In LC-MS/MS, mass spectrum was API 5500, and liquid chromatography was Shimadzu LC-30AD system. The column used for the test groups of Compound 3 and Compound 4 was Thermo C18 column (4.6 mm×100 mm, 3 μm); for mobile phases, phase A was water+0.1% formic acid, and phase B was methanol; the flow rate was 0.8 mL/min, and the column temperature was 40° C. The column used for the test group of Compound 5 was Agela AQ C18 column (2.1 mm×50 mm, 1.9 μm); for mobile phases, phase A was water+0.05% formic acid+5 mM acetic acid ammonium, and phase B was methanol+0.05% formic acid; the flow rate was 0.6 mL/min, and the column temperature was 40° C. The ion source used was the ESI source in positive ion mode, and the scanning mode was Multiple Reaction Monitoring (MRM).
# [3] = Ability of compounds to pass through the blood-brain barrier (plasma and brain tissue concentration); type: in vivo; details: rat, male rats, iv 1 mg/kg; for concentration at 5 min: 5 min after administration; for concentration at 15 min: 15 min after administration; for concentration at 30 min: 30 min after administration; for concentration at 60 min: 60 min after administration
# Description: After peripheral intravenous administration of the compound of each Example to the animal, samples of peripheral plasma and brain tissue were taken to determine the concentration of the compound in the peripheral plasma and brain tissue.
# After intravenously injected with the compound of Example 5 at 1 mg/kg to male rats, samples of plasma and brain tissues were taken at various time points, and the contents of the test compound in the peripheral plasma and brain tissue were determined.
# [4] = brain, read-out: Concentration in brain tissue
# [5] = plasma, read-out: Concentration in peripheral plasma
smiles,measurement,setting,value
"COCCOCCNCCCC[C@@H](NC(=O)[C@@H](CC(C)C)NC(=O)[C@@H](Cc1ccccc1)NC(=O)[C@H](N)Cc1ccccc1)C(=O)N1CCC(N)(C(=O)O)CC1 [Example 5, 4-amino-1-((R)-2-((R)-2-((R)-2-((R)-2-amino-3-phenylpropanamido)-3-phenylpropanamido)-4-methylpentanamido)-6-((2-(2-methoxyethoxy)ethyl)amino)hexanoyl)piperidin-4-carboxylic acid]",EC50,[1],0.05 nM
same,Ki,"DOR; Ki=IC50/(1+[radioligand]/Kd), read-out: DOR Ki",> 12000 nM
same,IC50,"DOR; radioligand 3H-DADLE, 1 h incubation, read-out: DOR IC50",> 20000 nM
same,Ki,"MOR; Ki=IC50/(1+[radioligand]/Kd), read-out: MOR Ki",> 7180 nM
same,IC50,"MOR; radioligand 3H-DAMGO, 1 h incubation, read-out: MOR IC50",> 20000 nM
same,KOR selectivity (in words),KOR; KOR versus MOR and DOR binding,excellent KOR selectivity
same,Ki,"KOR; Ki=IC50/(1+[radioligand]/Kd), read-out: KOR Ki",0.02 nM
same,IC50,"KOR; radioligand 3H-diprenophrine, 1 h incubation, read-out: KOR IC50",0.05 nM
same,analgesic effect (in words),"male ICR mice; acetic acid-induced writhing, mice, iv",significant analgesic effect
same,ED50,"male ICR mice; iv administration 15 min before 0.6% acetic acid ip, writhes counted within 15 min",0.017
same,pharmacokinetic profile (in words),[2],good exposure amount and Cmax
same,AUC(0-t),"[2]; rat, plasma",783 ng·h/mL
same,Cmax,"[2]; rat, plasma",1690 ng/mL
same,Vd,"[2]; rat, plasma",0.53 L/kg
same,half-life,"[2]; rat, plasma",16.8 min
same,concentration at 5 min,[3]; [4],0 ng/mL
same,concentration at 15 min,[3]; [4],0 ng/mL
same,concentration at 30 min,[3]; [4],0.2 ng/mL
same,concentration at 60 min,[3]; [4],0 ng/mL
same,concentration at 5 min,[3]; [5],1310 ng/mL
same,concentration at 15 min,[3]; [5],716 ng/mL
same,concentration at 30 min,[3]; [5],386 ng/mL
same,concentration at 60 min,[3]; [5],136 ng/mL
